This passage reports IC50 results from patent US11939314B2, “Quinolin-2-one derivatives” (MERCK PATENT GMBH, priority 2016, dated 2024).

In test [1] the target is T1, c-Kit(V654A) (Homo sapiens, UniProt P10721, V654A).
T1 construct: amino acids 544-end containing the V654A mutation; GST (N)
Nature of the test: c-Kit(V654A) assay. The note with it: recombinant human c-Kit aa 544-end, 200 μM ATP, 1.4E-06 means 1.4×10^−6, read-out: Inhibition (IC50) of c-KIT (V654A). Format: biochemical. The method in brief:
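Radiometric filter-binding read-out: substrate 33P incorporation counted by scintillation after P30 filtermat washes in 75 mM phosphoric acid and methanol. Enzyme: N-GST recombinant human c-Kit aa 544-end carrying V654A.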

The target of test [2] is T2, PDGFRalpha(V561D) (Homo sapiens, UniProt P16234, V561D).
T2 construct: recombinant human PDGFRalpha, amino acids 550end containing the V561 D mutation; 6His (N)
T2 sequence (P16234 550-1089 V561D): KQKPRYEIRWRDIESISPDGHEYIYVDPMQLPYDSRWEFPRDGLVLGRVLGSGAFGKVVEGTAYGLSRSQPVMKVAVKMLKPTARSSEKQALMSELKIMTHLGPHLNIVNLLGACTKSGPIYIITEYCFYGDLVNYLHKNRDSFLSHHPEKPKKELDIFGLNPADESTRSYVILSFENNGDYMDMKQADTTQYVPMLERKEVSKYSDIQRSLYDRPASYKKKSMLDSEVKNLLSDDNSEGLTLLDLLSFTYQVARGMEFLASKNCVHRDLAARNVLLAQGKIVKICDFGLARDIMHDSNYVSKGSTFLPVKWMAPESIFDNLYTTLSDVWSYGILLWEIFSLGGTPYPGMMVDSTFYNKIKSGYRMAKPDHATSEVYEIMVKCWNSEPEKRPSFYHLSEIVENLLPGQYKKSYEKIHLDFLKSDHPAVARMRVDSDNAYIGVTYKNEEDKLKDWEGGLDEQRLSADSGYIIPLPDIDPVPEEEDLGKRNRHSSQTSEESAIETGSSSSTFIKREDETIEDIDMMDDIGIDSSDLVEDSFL
As to the kind of experiment: PDGFRalpha(V561D) assay. The note with it: recombinant human PDGFRalpha aa 550-end, 200 μM ATP, 1.4E-06 means 1.4×10^−6, read-out: Inhibition (IC50) of PDGFRα (V561D). Format: biochemical. The method in brief: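 Radiometric filter-binding assay: substrate phosphorylation by recombinant N-His-tagged human PDGFRα 550-end V561D was quenched with 3% phosphoric acid after 40 min at room temperature, then counted.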

The IC50 is the concentration at which inhibition is half-maximal.

T1 sequence (P10721 544-976 V654A): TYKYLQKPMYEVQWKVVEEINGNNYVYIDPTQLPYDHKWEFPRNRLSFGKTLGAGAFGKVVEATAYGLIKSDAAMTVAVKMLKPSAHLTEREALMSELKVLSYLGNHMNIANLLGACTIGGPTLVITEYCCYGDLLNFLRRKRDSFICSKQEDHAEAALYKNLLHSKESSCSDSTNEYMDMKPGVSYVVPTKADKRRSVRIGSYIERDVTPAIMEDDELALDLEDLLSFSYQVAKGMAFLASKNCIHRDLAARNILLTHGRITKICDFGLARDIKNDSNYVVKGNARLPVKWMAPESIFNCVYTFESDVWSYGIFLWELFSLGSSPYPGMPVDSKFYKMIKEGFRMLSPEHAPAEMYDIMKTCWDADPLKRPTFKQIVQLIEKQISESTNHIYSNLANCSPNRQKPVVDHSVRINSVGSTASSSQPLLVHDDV

Consider `COCCOC[C@@H]1CCN(C(=O)c2ccc(-n3cc(-c4cc5cc(F)c(F)cc5[nH]c4=O)nn3)cc2)C1` [A223, 6,7-difluoro-3-(1-{4-[(R)-3-(2-methoxy-ethoxymethyl)-pyrrolidine-1-carbonyl]-phenyl}-1H-[1,2,3]triazol-4-yl)-1H-quinolin-2-one], for which the IC50 in test [1] is 350 nM; in test [2], 410 nM.
Take `O=C(c1ccc(-n2cc(-c3cc4cc(Cl)ccc4[nH]c3=O)nn2)cc1)N1CCNCC1` [A123, 6-chloro-3-{1-[4-(piperazine-1-carbonyl)-phenyl]-1H-[1,2,3]triazol-4-yl}-1H-quinolin-2-one]: the IC50 in test [1] was determined as 5 nM; in test [2], 1 nM.
As to `COC[C@H]1CC[C@H](COC)N1C(=O)c1ccc(-n2cc(-c3cc4cc(F)ccc4[nH]c3=O)nn2)cc1` [A218, 3-{1-[4-((2R,5R)-2,5-bis-methoxymethyl-pyrrolidine-1-carbonyl)-phenyl]-1H-[1,2,3]triazol-4-yl}-6-fluoro-1H-quinolin-2-one], the IC50 in test [1] stood at 64 nM; in test [2], 59 nM.
The corresponding values for `CO[C@@H]1C[C@H](CO)N(C(=O)c2ccc(-n3cc(-c4cc5cc(Cl)ccc5[nH]c4=O)nn3)cc2)C1` [A247, 6-chloro-3-{1-[4-((2R,4R)-2-hydroxymethyl-4-methoxy-pyrrolidine-1-carbonyl)-phenyl]-1H-[1,2,3]triazol-4-yl}-1H-quinolin-2-one] are 23 nM and 45 nM.
Take `O=c1[nH]c2ccccc2cc1-c1cn(-c2ccc(OCCN3CCOCC3)cc2)nn1` [A26, 3-{1-[4-(2-morpholin-4-yl-ethoxy)-phenyl]-1H-[1,2,3]triazol-4-yl}-1H-quinolin-2-one]: the figures for the IC50 in test [1] and in test [2] were 15 nM and 10 nM, respectively.
The corresponding values for `COc1cccc(-n2cc(-c3cc4ccccc4[nH]c3=O)nn2)c1` [A24, 3-[1-(3-methoxy-phenyl)-1H-[1,2,3]triazol-4-yl]-1H-quinolin-2-one] are 110 nM and 26 nM.
Take `COCCN(C)C(=O)c1ccc(-n2cc(-c3cc4cc(F)ccc4[nH]c3=O)nn2)cc1` [A211, 4-[4-(6-fluoro-2-oxo-1,2-dihydro-quinolin-3-yl)-[1,2,3]triazol-1-yl]-N-(2-methoxy-ethyl)-N-methyl-benzamide]: the IC50 in test [1] came out at 190 nM; in test [2] it was 85 nM.
Taken in the same sequence, the figures for `O=C(c1ccc(-n2cc(-c3cc4cc(Cl)ccc4[nH]c3=O)nn2)cc1)N1CCC2(CC1)COC2` [A256, 6-chloro-3-{1-[4-(2-oxa-7-aza-spiro[3.5]nonane-7-carbonyl)-phenyl]-1H-[1,2,3]triazol-4-yl}-1H-quinolin-2-one] were 27 nM and 4.3 nM.
As for `CN(C)C[C@H]1CCCN1C(=O)c1ccc(-n2cc(-c3cc4cc(F)c(F)cc4[nH]c3=O)nn2)cc1` [A320, 3-{1-[4-((R)-2-dimethylaminomethyl-pyrrolidine-1-carbonyl)-phenyl]-1H-[1,2,3]triazol-4-yl}-6,7-difluoro-1H-quinolin-2-one], the IC50 in test [1] came to 48 nM; in test [2], 99 nM.
In the case of `COCCO[C@@H]1CCN(C(=O)c2ccc(-n3cc(-c4cc5cc(Cl)ccc5[nH]c4=O)nn3)cc2)C1` [A260, 6-chloro-3-(1-{4-[(R)-3-(2-methoxy-ethoxy)-pyrrolidine-1-carbonyl]-phenyl}-1H-[1,2,3]triazol-4-yl)-1H-quinolin-2-one], the IC50 was determined as 51 nM in test [1] and 100 nM in test [2].
Take `CN1CCN(C(=O)c2ccc(-n3cc(-c4cc5ccccc5[nH]c4=O)cn3)cc2)CC1` [A74, 3-{1-[4-(4-methyl-piperazine-1-carbonyl)-phenyl]-1H-pyrazol-4-yl}-1H-quinolin-2-one]: the values for the IC50 in test [1] and in test [2] were 8 nM and 6 nM, respectively.
Turning to `CN1CCN(C(=O)c2ccc(-n3cc(-c4cc5ccc(C(F)(F)F)cc5[nH]c4=O)nn3)cc2)CC1` [A170, 3-{1-[4-(4-methyl-piperazine-1-carbonyl)-phenyl]-1H-[1,2,3]triazol-4-yl}-7-trifluoromethyl-1H-quinolin-2-one], the IC50 came to 1800 nM in test [1] and 12000 nM in test [2].
Take `NC(=O)[C@@H]1CCCN1C(=O)c1ccc(-n2cc(-c3cc4cc(F)ccc4[nH]c3=O)nn2)cc1` [A242, (S)-1-{4-[4-(6-fluoro-2-oxo-1,2-dihydro-quinolin-3-yl)-[1,2,3]triazol-1-yl]-benzoyl}-pyrrolidine-2-carboxylic acid amide]: the values for the IC50 in test [1] and in test [2] were 11 nM and 17 nM, respectively.
As for `O=C1OCCN1c1ccc(-n2cc(-c3cc4cc(F)ccc4[nH]c3=O)nn2)cc1` [A98, 6-fluoro-3-{1-[4-(2-oxo-oxazolidin-3-yl)-phenyl]-1H-[1,2,3]triazol-4-yl}-1H-quinolin-2-one], the IC50 amounted to 180 nM in test [1] and 75 nM in test [2].
Regarding `CC(C)(c1ccc(-n2cc(-c3cc4ccccc4[nH]c3=O)nn2)cc1)S(C)(=O)=O` [A81, 3-{1-[4-(1-methanesulfonyl-1-methyl-ethyl)-phenyl]-1H-[1,2,3]triazol-4-yl}-1H-quinolin-2-one], the IC50 was 17 nM in test [1] and 6 nM in test [2].
Turning to `O=c1[nH]c2ccc(F)cc2cc1-c1cn(-c2ccc(N3CCCS3(=O)=O)cc2)nn1` [A99, 3-{1-[4-(1,1-dioxo-1|6-isothiazolidin-2-yl)-phenyl]-1H-[1,2,3]triazol-4-yl}-6-fluoro-1H-quinolin-2-one], the figures for the IC50 in test [1] and in test [2] were 33 nM and 76 nM, respectively.
Consider `CN(C)[C@H]1[C@@H]2CN(C(=O)c3ccc(-n4cc(-c5cc6cc(F)ccc6[nH]c5=O)nn4)cc3)C[C@@H]21` [A330, 3-{1-[4-(6-dimethylamino-3-aza-bicyclo[3.1.0]hexane-3-carbonyl)-phenyl]-1H-[1,2,3]triazol-4-yl}-6-fluoro-1H-quinolin-2-one], for which the IC50 in test [1] was found to be 48 nM; in test [2], 21 nM.
On to `CC(=O)OC1CCCN(C(=O)c2ccc(-n3cc(-c4cc5cc(F)ccc5[nH]c4=O)nn3)cc2)C1` (centres unmarked) [A103, acetic acid 1-{4-[4-(6-fluoro-2-oxo-1,2-dihydro-quinolin-3-yl)-[1,2,3]triazol-1-yl]-benzoyl}-piperidin-3-yl ester], for which the IC50 was 8.6 nM in test [1] and 35 nM in test [2].
The corresponding values for `O=C(c1ccc(-n2cc(-c3cc4cc(F)ccc4[nH]c3=O)nn2)cc1)N1CC[C@H](F)C1` [A265, 6-fluoro-3-{1-[4-((S)-3-fluoro-pyrrolidine-1-carbonyl)-phenyl]-1H-[1,2,3]triazol-4-yl}-1H-quinolin-2-one] are 49 nM and 1.6 nM.
As for `O=C(c1cccc(-n2cc(-c3cc4cc(F)ccc4[nH]c3=O)nn2)c1)N1CCC(N2CCCC2)C1` (centres unmarked) [A107, 3-{1-[3-([1,3′]bipyrrolidinyl-1′-carbonyl)-phenyl]-1H-[1,2,3]triazol-4-yl}-6-fluoro-1H-quinolin-2-one], the IC50 in test [1] was found to be 44 nM; in test [2], 23 nM.
As for `O=C(c1ccc(-n2cc(-c3cc4cc(Cl)ccc4[nH]c3=O)nn2)cc1)N1CCN(C2COC2)CC1` [A250, 6-chloro-3-{1-[4-(4-oxetan-3-yl-piperazine-1-carbonyl)-phenyl]-1H-[1,2,3]triazol-4-yl}-1H-quinolin-2-one], the figures for the IC50 in test [1] and in test [2] were 40 nM and 76 nM, respectively.
Taken in the same sequence, the figures for `CO[C@@H]1C[C@@H](CO)N(C(=O)c2ccc(-n3cc(-c4cc5cc(F)ccc5[nH]c4=O)nn3)cc2)C1` [A241, 6-fluoro-3-{1-[4-((2S,4R)-2-hydroxymethyl-4-methoxy-pyrrolidine-1-carbonyl)-phenyl]-1H-[1,2,3]triazol-4-yl}-1H-quinolin-2-one] were 100 nM and 290 nM.
The corresponding values for `CN1CCN(C(=O)Cc2ccc(-n3cc(-c4cc5cc(F)c(F)cc5[nH]c4=O)nn3)cc2)CC1` [A169, 6,7-difluoro-3-(1-{4-[2-(4-methyl-piperazin-1-yl)-2-oxo-ethyl]-phenyl}-1H-[1,2,3]triazol-4-yl)-1H-quinolin-2-one] are 14 nM and 430 nM.
In the case of `O=C(c1ccc(-n2cc(-c3cc4cc(F)ccc4[nH]c3=O)nn2)cc1)N1CCC(N2CCCC2)C1` (centres unmarked) [A100, 3-{1-[4-([1,3′]bipyrrolidinyl-1′-carbonyl)-phenyl]-1H-[1,2,3]triazol-4-yl}-6-fluoro-1H-quinolin-2-one], the IC50 in test [1] is 20 nM; in test [2] it was 63 nM.
Regarding `COC[C@@H]1CCCN1C(=O)c1ccc(-n2cc(-c3cc4cc(Cl)ccc4[nH]c3=O)nn2)cc1` [A253, 6-chloro-3-{1-[4-((S)-2-methoxymethyl-pyrrolidine-1-carbonyl)-phenyl]-1H-[1,2,3]triazol-4-yl}-1H-quinolin-2-one], the 50% inhibitory concentration (IC50) in test [1] turned out to be 44 nM; in test [2] it was 21 nM.
On to `CN1CCN(c2ccc(-n3cc(-c4cc5cc(F)ccc5[nH]c4=O)nn3)cc2)CC1` [A70, 6-fluoro-3-{1-[4-(4-methyl-piperazin-1-yl)-phenyl]-1H-[1,2,3]triazol-4-yl}-1H-quinolin-2-one], for which the IC50 in test [1] came to 14 nM; in test [2], 5 nM.
`O=C(NCCO)c1ccc(-n2cc(-c3cc4cccnc4[nH]c3=O)nn2)cc1` [A8, N-(2-hydroxy-ethyl)-4-[4-(2-oxo-1,2-dihydro-[1,8]naphthyridin-3-yl)-[1,2,3]triazol-1-yl]-benzamide]: the figures for the IC50 in test [1] and in test [2] were 170 nM and 14 nM, respectively.
Turning to `CN1CCN(C(=O)c2ccc(-n3cc(-c4cc5cccnc5[nH]c4=O)nn3)cc2)CC1` [A64, 3-{1-[4-(4-methyl-piperazine-1-carbonyl)-phenyl]-1H-[1,2,3]triazol-4-yl}-1H-[1,8]naphthyridin-2-one], the 50% inhibitory concentration (IC50) was determined as 44 nM in test [1] and 16 nM in test [2].
